We go through seven compounds from patent publication US9290535B2, “Uridine-based gadolinium complex and MRI contrast agent including the same” (Korea University Researchand Business Foundation, priority 2011, dated 2016).

“And” between values parts separate entries of the source, which are not always exact repeats. Identical values can stand only once.

The nature of series [1]: Relaxivity measurements (r1, r2) in PBS solution. The class given is physicochemical. The note with it: PBS solution, 36° C.
Protocol: Longitudinal and transverse relaxivities, r1 and r2, were measured at 20 MHz (0.47 T) and 60 MHz (1.41 T) at 36° C. on NMR (mq20 and mq60, Bruker, Germany) and animal MRI (Biospec 47/40, Bruker, Germany) systems. T1 and T2 relaxation times were measured with inversion recovery and spin-echo pulse sequences, respectively.
The relaxation efficiency of the newly synthesized amphiphilic MRI contrast agents according to the present invention was determined by measuring longitudinal relaxivity (r1) and transverse relaxivity (r2) at 20 MHZ (0.47 T) and 60 MHz (1.41 T) in phosphate buffered saline (PBS) solution at 36° C.
Series [2] addresses T1, human serum albumin (HSA) (Homo sapiens, UniProt P02768).
T1 construct: purchased Sigma (Bornem, Belgium) A3782
Nature of the series: Interaction with human serum albumin (relaxivity with HSA, binding constant). The note with it: 36° C.; for Relaxivity r1^a (with HSA): 20 MHz (0.47 T), PBS solution with 0.65 mM HSA. From the text: It is well known that non-covalent interaction of the contrast agent with human serum albumin (HSA) increases its circulation time in blood and slows down tubling rate, leading to greater contrast enhancement for blood vessel imaging. In this example, effective interaction between the newly synthesized contrast agents (CAs) and human serum albumin (HSA) were investigated.
Human serum albumin (HSA; Product No. A3782) was purchased from Sigma (Bornem, Belgium) and was used without further purification. HSA binding experiment was performed with 50 μM of the complexes LGd1-5 in PBS solution depending on the concentration of HSA from 0 to 4 mM at 20 MHz and 36° C.
The increment of R1/R1^0 with increasing aliphatic chain length is: LGd2>LGd3>LGd4>LGd5.
Furthermore, to know the non-covalent binding strength between HSA and the complex, a binding constant (Ka) of (3.34±0.28)×10^3 M^−1 for the complex LGd3 was determined using the theoretical equation reported in the reference (D. T. Schuhle, J. Schatz, S. Laurent, L. V. Elst, R. N. Muller, M. C. A. Stuart, J. A. Peters, Chem. Eur. J. 2009, 15, 3290). The relaxivity for the non-aggregate form of LGd3 (r1^f) was measured to be 18.5 mM^−1s^−1 (below CMC=50 μM; FIG. 10), while for adduct LGd3.HSA (r1^c), 41.0 mM^−1s^−1 at 36° C. and 20 MHz (0.47 T) in PBS solution. […] As a result, the complex LGd3 of the present invention could be retained in vivo for a longer time.

Series [3] in a line: pH dependence of water 1H relaxivity. The class given is physicochemical. The note with it: 36° C. As for the experimental part:
The relaxivities of the non-aggregated complex LGd1 and the most aggregated complex LGd3 (FIG. 7, average diameter […]) were investigated at various pH values (3.5-11) at 60 MHz (1.41 T) and 36° C.
The pH dependence of water ^1H-NMR relaxivity r1 was obtained at 60 MHz and 36° C. The complexes LGd1 and LGd3 were dissolved in previously prepared stock solutions (StockOptions pH Screen, Hampton Research, USA) at pH 3.5-11.

Series [4] can be described thus: Stability against transmetallation by Zn2+ (time evolution of proton relaxation rate). The class given is physicochemical. The note with it: for Relaxivity retained after transmetallation: 2.5 mM complex with 2.5 mM ZnCl2 in PBS, after 70 h; for y0 of fit y0+A×exp(−t/C1) of proton relaxation rate during transmetallation: Zn(II) ions, PBS, 20 MHz (0.47 T), 36° C., steady state in about 70 h. As for the experimental part:
The stability of the gadolinium complex against various biologically active metal ions is very important in in vivo applications. Among them, only Zn^2+ can displace significant amounts of the Gd^3+ ion as concentration of Zn^2+ in blood is relatively high (55-125 μM/L). The stability of the complexes LGd1-4 against transmetallation by Zn^2+ was studied employing the method of others.
The time evolution of the ^1H longitudinal relaxivity (R1) of a 2.5 mM gadolinium complex with 2.5 mM ZnCl2 in PBS solution was measured. Stability of the amphiphilic complex LGd2 of the present invention was greater than that of the non-aggregated complex LGd1 (FIG. 13). After 70 h, the relaxivities were retained 30, 50, 21, and 12% for LGd1-4, respectively.

The conditions of series [5]: clinical liver-specific contrast agents; cited from earlier work.
The nature of series [6]: Dynamic light scattering (DLS) of micelles. The note with it: FIGS. 6 to 9; for DLS average size of micelles: pH 7.4. Format: physicochemical.

T1 sequence (P02768 25-609): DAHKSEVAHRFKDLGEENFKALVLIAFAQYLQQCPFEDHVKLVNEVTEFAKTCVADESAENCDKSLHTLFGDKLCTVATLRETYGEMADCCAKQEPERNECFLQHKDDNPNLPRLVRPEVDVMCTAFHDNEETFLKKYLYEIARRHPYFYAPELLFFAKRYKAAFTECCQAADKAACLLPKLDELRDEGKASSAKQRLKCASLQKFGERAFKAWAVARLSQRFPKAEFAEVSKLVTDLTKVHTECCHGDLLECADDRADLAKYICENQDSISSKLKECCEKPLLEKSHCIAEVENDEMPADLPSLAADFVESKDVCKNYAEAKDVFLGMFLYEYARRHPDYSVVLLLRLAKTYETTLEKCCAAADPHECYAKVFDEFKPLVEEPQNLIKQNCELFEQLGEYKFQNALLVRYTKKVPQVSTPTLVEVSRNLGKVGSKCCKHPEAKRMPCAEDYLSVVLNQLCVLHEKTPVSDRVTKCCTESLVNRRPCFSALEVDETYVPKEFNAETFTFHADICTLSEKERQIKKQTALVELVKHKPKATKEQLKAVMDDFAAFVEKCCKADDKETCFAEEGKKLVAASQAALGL

Regarding `O=C([O-])CN(CCN(CCN(CC(=O)[O-])CC(=O)[O-])C[C@H]1O[C@@H](n2ccc(=O)[nH]c2=O)[C@H](O)[C@@H]1O)CC(=O)[O-].[Gd+3]` [LGd1], in series [1] (20 MHz (0.47 T)), the “Relaxivity r1” value stood at 5.10 mM⁻¹ s⁻¹. Besides, in series [1] (60 MHz (1.41 T)), the “Relaxivity r1” value stood at 4.17 mM⁻¹ s⁻¹. For the same compound, the “Relaxivity r1^a (with HSA)” value in series [2] is 5.62 mM⁻¹ s⁻¹. For the same compound, in series [3] (pH 3.5-11, 60 MHz (1.41 T)), the “Relaxivity over the given pH range” value was 5.0±0.1 mM^−1s^−1 and 5.0±0.6 mM^−1s^−1. Besides, in series [3] (pH 11, 60 MHz), the “Decrease of relaxivity at alkaline pH” value was “about 10%”. Moreover, in series [4], the “Relaxivity retained after transmetallation” value (from here on “Relaxivity retained”) is given as 30% and the “y0 of fit y0+A×exp(−t/C1) of proton relaxation rate during transmetallation” value was 0.30.
`CCOc1ccc(CC(CN(CCN(CC(=O)[O-])CC(=O)[O-])CC(=O)[O-])N(CC(=O)[O-])CC(=O)[O-])cc1.[Gd+3].[Na+].[Na+]` (stereo not drawn) [Primovist®, Gd-EOB-DTPA]: in series [5], the Hepatic excretion is recorded as 50% and the Renal excretion is 50%.
For `CNC[C@H](O)[C@@H](O)[C@H](O)[C@H](O)CO.CNC[C@H](O)[C@@H](O)[C@H](O)[C@H](O)CO.O=C([O-])CN(CCN(CC(=O)[O-])CC(=O)O)CCN(CC(=O)O)C(COCc1ccccc1)C(=O)[O-].[Gd+3]` (stereo not drawn) [Multihance®, Gd-BOPTA], in series [5], the Hepatic excretion is given as 4% and the Renal excretion is reported as 96%.
Take `CCCCCCCC(=O)O[C@@H]1[C@H](OC(=O)CCCCCCC)[C@@H](CN(CCN(CC(=O)[O-])CC(=O)[O-])CCN(CC(=O)[O-])CC(=O)[O-])O[C@H]1n1ccc(=O)[nH]c1=O.[Gd+3]` [LGd2]: the “Relaxivity r1” value in series [1] (20 MHz (0.47 T)) is 14.70 mM⁻¹ s⁻¹. Moreover, in series [1] (60 MHz (1.41 T)), the “Relaxivity r1” value turned out to be 12.40 mM⁻¹ s⁻¹. Moreover, the “Effective interaction with HSA (R1/R1^0)” value in series [2] (50 μM complex, HSA below 1.0 mM, 20 MHz) is reported as “high”. The “Relaxivity r1^a (with HSA)” value in series [2] was 31.90 mM⁻¹ s⁻¹. In series [6], the “DLS PDI of micelles” value worked out at 0.986 and the “DLS average size of micelles” value is on record as 6.78 nm. Besides, in series [4], the “Relaxivity retained” value came to 50% and the “y0 of fit y0+A×exp(−t/C1) of proton relaxation rate during transmetallation” value turned out to be 0.50.
With `O=C([O-])CN(CCN(CC(=O)[O-])CC(COP(=O)([O-])OC1CCC(c2ccccc2)(c2ccccc2)CC1)N(CC(=O)[O-])CC(=O)[O-])CC(=O)[O-].[Gd+3].[Na+].[Na+].[Na+]` (stereo not drawn) [Vasovist®, diphenylcyclohexyl phosphodiester-Gd-DTPA], in series [5], the Hepatic excretion is reported as 8% and the Renal excretion was 91%.
In the case of `CCCCCCCCCCCCCC(=O)O[C@@H]1[C@H](OC(=O)CCCCCCCCCCCCC)[C@@H](CN(CCN(CC(=O)[O-])CC(=O)[O-])CCN(CC(=O)[O-])CC(=O)[O-])O[C@H]1n1ccc(=O)[nH]c1=O.[Gd+3]` [LGd5], the “Relaxivity r1” value was determined as 20.10 mM⁻¹ s⁻¹ in series [1] (20 MHz (0.47 T)) and 17.20 mM⁻¹ s⁻¹ in series [1] (60 MHz (1.41 T)). Further, the “Relaxivity r1^a (with HSA)” value in series [2] worked out at 26.40 mM⁻¹ s⁻¹. In addition, in series [6], the “DLS PDI of micelles” value stood at 1.14. In series [6], the “DLS average size of micelles” value is on record as 24.74 nm.
Regarding `CCCCCCCCCCCC(=O)O[C@@H]1[C@H](OC(=O)CCCCCCCCCCC)[C@@H](CN(CCN(CC(=O)[O-])CC(=O)[O-])CCN(CC(=O)[O-])CC(=O)[O-])O[C@H]1n1ccc(=O)[nH]c1=O.[Gd+3]` [LGd4], the “Relaxivity r1” value in series [1] (20 MHz (0.47 T)) was found to be 27.10 mM⁻¹ s⁻¹. The “Relaxivity r1” value in series [1] (60 MHz (1.41 T)) worked out at 16.50 mM⁻¹ s⁻¹. In series [2], the “Relaxivity r1^a (with HSA)” value came to 38.50 mM⁻¹ s⁻¹. In addition, in series [6], the “DLS PDI of micelles” value is on record as 1.12 and the “DLS average size of micelles” value came out at 50.16 nm. In addition, in series [4], the “Relaxivity retained” value was determined as 12% and the “y0 of fit y0+A×exp(−t/C1) of proton relaxation rate during transmetallation” value is reported as 0.12.
